Results on 24 compounds are retold here after patent US8871756B2 (Hoffmann-La Roche Inc., priority 2011, dated 2014).

Structures are written as SMILES.

By EC50 is commonly meant the midpoint of the concentration-response curve. A low value points to a more potent agent.

One test deals with RSV Long strain. Briefly: Viral cytopathic effect (CPE) assay, anti-RSV activity. It is filed as cell-based, Respiratory Syncytial Virus. The settings on record: RSV Long strain (ATCC); cell viability after 6 days, Cell Counting kit-8. In a few lines:
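EC50 was derived from CCK-8 viability at 450/630 nm measured 6 days post-infection. Infection used enough RSV Long strain for approximately 80–90% cytopathic effect, in the presence of half-log serially diluted compound. Cells were plated the day before at 6×10^3 per well in DMEM/10% FBS.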
In turn, `Cc1ccc2nc(N3CC[S+]([O-])c4ccccc4C3)nc(NCC3(CN)COC3)c2c1` (single isomer, unassigned; (+)) [Example 62-3, (+)-N-{[3-(Aminomethyl)oxetan-3-yl]methyl}-6-methyl-2-[1-oxido-2,3-dihydro-1,4-benzothiazepin-4(5H)-yl]quinazolin-4-amine] displayed an EC50 of 0.0013 µM.
As to `Cc1ccc2nc(N3CCS(=O)(=O)c4ccccc4C3)nc(NCCC(F)CN)c2c1` (stereo not drawn) [Example 62-4, N^˜4^˜-[2-(1,1-Dioxido-2,3-dihydro-1,4-benzothiazepin-4(5H)-yl)-6-methylquinazolin-4-yl]-2-fluorobutane-1,4-diamine], the response was half-maximal at 0.019 µM (EC50).
For the compound `Cc1ccc2nc(N3CC[S+]([O-])c4ccccc4C3)cc(NCC3(N)COC3)c2c1` (single isomer, unassigned; (-)) [Example 18-3, (−)-N-[(3-Aminooxetan-3-yl)methyl]-6-methyl-2-[1-oxido-2,3-dihydro-1,4-benzothiazepin-4(5H)-yl]quinolin-4-amine], it took 0.014 µM to reach a half-maximal effect (EC50).

The same test, now with this note: human respiratory syncytial virus, 144 h, RSV Long strain (ATCC); cell viability after 6 days, Cell Counting kit-8.
For `Cc1ccc2nc(N3CCS(=O)(=O)c4ccccc4C3)cc(N3CCC(C(N)=O)C3)c2c1` (stereo not drawn) [Example 79, 1-[2-(1,1-Dioxido-2,3-dihydro-1,4-benzothiazepin-4(5H)-yl)-6-methylquinolin-4-yl]pyrrolidine-3-carboxamide], the EC50 came to 2.79 µM.
`Cc1ccc2nc(N3CCS(=O)(=O)c4ccccc4C3)cc(NC3(CCO)COC3)c2c1` [Example 5-12, 3-{[2-(1,1-Dioxido-2,3-dihydro-1,4-benzothiazepin-4(5H)-yl)-6-methylquinolin-4-yl]amino}oxetan-3-ethanol] registered an EC50 of 6.25 µM.
On the same count and under the same terms, next, `Cc1ccc2nc(N3CCS(=O)(=O)c4ccccc4C3)cc(NC[C@H](N)CO)c2c1` [Example 37-1, (2S)-2-Amino-3-{[2-(1,1-dioxido-2,3-dihydro-1,4-benzothiazepin-4(5H)-yl)-6-methylquinolin-4-yl]amino}propan-1-ol]: 0.005 µM.
Compound `Cc1ccc2nc(N3CCS(=O)(=O)c4ccccc4C3)cc(N3CCCC(N)C3)c2c1` (stereo not drawn) [Example 16-1, 1-[2-(1,1-Dioxido-2,3-dihydro-1,4-benzothiazepin-4(5H)-yl)-6-methylquinolin-4-yl]piperidin-3-amine] yielded an EC50 of 2.57 µM.
On the same count and under the same terms, next, `NCCNc1cc(N2CCS(=O)(=O)c3ccccc3C2)nc2ccc(F)cc12` [Example 9-9, N-[2-(1,1-Dioxido-2,3-dihydro-1,4-benzothiazepin-4(5H)-yl)-6-fluoroquinolin-4-yl]ethane-1,2-diamine]: 0.157 µM; `Cc1ccc2nc(N3CCS(=O)(=O)c4ccccc4C3)cc(N3CCOCC3)c2c1` [Example 9-4, 4-[6-Methyl-4-(morpholin-4-yl)quinolin-2-yl]-2,3,4,5-tetrahydro-1,4-benzothiazepine 1,1-dioxide]: 8.87 µM.
On to `Cc1ccc2nc(N3CCS(=O)(=O)c4ccccc4C3)cc(NCC3(N)CCOCC3)c2c1` [Example 2-3, N-[(4-Aminotetrahydro-2H-pyran-4-yl)methyl]-2-(1,1-dioxido-2,3-dihydro-1,4-benzothiazepin-4(5H)-yl)-6-methylquinolin-4-amine], for which the response was half-maximal at 2.81 µM (EC50).
Consider `Cc1ccc2nc(N3CCS(=O)(=O)c4ccccc4C3)cc(NCC[S+](C)[O-])c2c1` (stereo not drawn) [Example 74, 2-(1,1-Dioxido-2,3-dihydro-1,4-benzothiazepin-4(5H)-yl)-6-methyl-N-[2-(methylsulfinyl)ethyl]quinolin-4-amine], for which the EC50 is 1.94 µM.
Consider `NCCNc1cc(N2CCCc3ccccc3C2)nc2ccc(Cl)cc12` [Example 118-5, N-[6-Chloro-2-(1,3,4,5-tetrahydro-2H-2-benzazepin-2-yl)quinolin-4-yl]ethane-1,2-diamine], for which the EC50 worked out at 0.178 µM.
On the same count and under the same terms, next, `COc1ccc2c(c1)S(=O)(=O)CCN(c1cc(NCCO)c3ccccc3n1)C2` [Example 9-2, 2-{[2-(8-M ethoxy-1,1-dioxido-2,3-dihydro-1,4-benzothiazepin-4(5 H)-yl)quinolin-4-yl]amino}ethanol]: 4.77 µM; `Cc1cccc2c(NCCCCCCCCCN)cc(N3CCS(=O)(=O)c4ccccc4C3)nc12` [Example 12-3, N-[2-(1,1-Dioxido-2,3-dihydro-1,4-benzothiazepin-4(5H)-yl)-8-methylquinolin-4-yl]nonane-1,9-diamine]: 6.26 µM.
Same read-out and setting: next, `Cc1ccc2nc(N3CCS(=O)(=O)c4ccccc4C3)cc(NC[C@@H](C)N)c2c1` [Example 5-9, (2R)—N˜1˜-[2-(1,1-Dioxido-2,3-dihydro-1,4-benzothiazepin-4(5H)-yl)-6-methylquinolin-4-yl]propane-1,2-diamine]: 0.018 µM; `O=S1(=O)CCN(c2cc(NCCO)c3cc(Cl)ccc3n2)Cc2ccccc21` [Example 9-31, 2-{[6-Chloro-2-(1,1-dioxido-2,3-dihydro-1,4-benzothiazepin-4(5H)-yl)quinolin-4-yl]amino}ethanol]: 2.43 µM.
The same measure, in the same setting: next, `COc1ccc2c(c1)S(=O)(=O)CCN(c1cc(N)c3cc(C)ccc3n1)C2` [Example 20-1, 2-(8-Methoxy-1,1-dioxido-2,3-dihydro-1,4-benzothiazepin-4(5H)-yl)-6-methylquinolin-4-amine]: 0.073 µM.
Regarding `Cc1ccc2c(c1)S(=O)(=O)CCN(c1cc(NCC3(CN)COC3)c3cc(C)ccc3n1)C2` [Example 3-8, N-{[3-(Aminomethyl)oxetan-3-yl]methyl}-6-methyl-2-(8-methyl-1,1-dioxido-2,3-dihydro-1,4-benzothiazepin-4(5H)-yl)quinolin-4-amine], a half-maximal response (EC50) required 0.002 µM.
On the same count and under the same terms, as for `Cc1ccc2nc(N3CCC(F)(F)c4ccccc4C3)cc(NCCCN)c2c1` [Example 111-9, N-[2-(5,5-Difluoro-1,3,4,5-tetrahydro-2H-2-benzazepin-2-yl)-6-methylquinolin-4-yl]propane-1,3-diamine], the figure is 0.047 µM; as for `NC1=NCC(CNc2cc(N3CCCc4ccccc4C3)nc3ccc(Cl)cc23)O1` (stereo not drawn) [Example 126-2, N-[(2-Amino-4,5-dihydro-1,3-oxazol-5-yl)methyl]-6-chloro-2-(1,3,4,5-tetrahydro-2H-2-benzazepin-2-yl)quinolin-4-amine], 0.638 µM; as for `Cc1ccc2nc(N3CCS(=O)(=O)c4ccccc4C3)cc(NC3CNCC34COC4)c2c1` (stereo not drawn) [Example 2-6, 2-(1,1-Dioxido-2,3-dihydro-1,4-benzothiazepin-4(5H)-yl)-6-methyl-N-(2-oxa-6-azaspiro[3.4]oct-8-yl)quinolin-4-amine], 0.021 µM.
The compound `Cc1ccc2nc(N3CCS(=O)(=O)c4ccccc4C3)cc(NC(=O)C3CNC(=O)C3)c2c1` (stereo not drawn) [Example 47-2, N-[2-(1,1-Dioxido-2,3-dihydro-1,4-benzothiazepin-4(5H)-yl)-6-methylquinolin-4-yl]-5-oxopyrrolidine-3-carboxamide] showed a concentration giving a half-maximal response (EC50) of 5.82 µM.
Compound `NCC1(CNc2nc(N3CCS(=O)(=O)c4ccccc4C3)nc3ccc(C(=O)O)cc23)COC1` [Example 108-2, 4-({[3-(Aminomethyl)oxetan-3-yl]methyl}amino)-2-(1,1-dioxido-2,3-dihydro-1,4-benzothiazepin-4(5H)-yl)quinazoline-6-carboxylic acid] came in with an EC50 of 2.47 µM.
On the same count and under the same terms, next, `Cc1ccc2nc(N3CC[S+]([O-])c4ccccc4C3)nc(NCC(F)(F)CN)c2c1` (stereo not drawn) [Example 56-2, 2,2-Difluoro-N-[6-methyl-2-(1-oxido-2,3-dihydro-1,4-benzothiazepin-4(5H)-yl)quinazolin-4-yl]propane-1,3-diamine]: 0.023 µM.
